Data from publication PMC9071099, “Towards an advanced testing strategy for genotoxicity using image-based 2D and 3D HepG2 DNA damage response fluorescent protein reporters” (Mutagenesis, 2021).
Like-named read-outs stand apart in the source and are kept apart here.

Columns and labels:
[1] = system: p53 pathway activation (p53-GFP, p21-GFP, BTG2-GFP HepG2 reporters); assay type: cell-based; settings: for DDR (p21 and p53 activation): 3D, 4-day repeated dosing
Procedure: (§1) The HepG2 BAC-GFP reporters for human BTG2, p21 and p53 were generated previously and used to monitor the DDR ([14],[18]). Cells were maintained in DMEM high glucose (Gibco) supplemented with 10% (v/v) fetal bovine serum (FBS), 25 U/ml penicillin and 25 µg/ml streptomycin (referred to as normal DMEM medium) at 37°C and 5% CO2. The reporter cells were tested between passages 19–21 throughout the data presented (Supplementary Figure 1, available at Mutagenesis Online).
(§2) Two different compound exposure scenarios were performed: a single exposure in 2D and a 4-day repeated exposure in 3D. A schematic overview of the tested exposure scenarios for each HepG2 model has been depicted in Figure 1. For the single exposure scenario in 2D, medium was replaced by freshly diluted compound in medium 24 h post seeding. DDRs were monitored after 24, 48 and 72 h by live cell confocal imaging (Figure 1A and B). For the 4-day repeated exposure scenario in 3D, each day medium was replaced by freshly diluted compound in medium for four consecutive days (Figure 1C and D). The imaging was started 24 h after the last exposure. For both scenarios, five compounds in eight concentrations were tested. DMSO, PBS or ultrapure H2O were used as solvent controls. The ATP-lite luminescence kit (Perkin Elmer) was used according to supplier’s protocol to measure cell viability. Measurements were performed 72 h or 24 h post single or repeated exposure, respectively. Absolute IC50 values have been calculated over the ATP-lite data by determining the intersect of the fitted concentration–response curve with the 50% viability baseline via GraphPad prism 8.1.1.
(§3) Prior to imaging, cells were stained with Hoechst 33342 at a concentration of 0.1 µg/ml to visualise the nuclei. To examine compound-induced cell death using confocal microscopy, propidium iodide (PI) was added during all compound exposures at a concentration of 100 µM to stain for necrotic or late apoptotic cells. The induction of GFP intensities and PI were monitored with a Nikon Eclipse Ti confocal laser microscope (Nikon, Amsterdam, The Netherlands), equipped with lasers at wavelengths 408, 488 and 561, an automated stage and perfect focus system at 37°C and 5% CO2. Images for 2D cultures were acquired with a Nikon 20x Dry Plan Apo VC NA 0.75 objective. Images for 3D cultures were acquired with a Nikon 10x Dry Plan Fluor NA 0.3 objective. For each condition, a z-stack of 9–11 images was generated with a step size of 30 µm.
(§4) For 2D cultures, image quantification was performed with Cell Profiler version 2.2.0 (Broad Institute, Cambridge, USA) using modules described previously ([14]). Nuclei segmentation based on Hoechst was done in ImageJ using an in-house developed macro based on the watershed masked clustering algorithm ([27]). Segmentation of the cytoplasmic area was done using the Distance N method expanding the edges of nuclear objects with six pixels followed by subtraction of the nuclear area. p21 and p53-GFP intensities were measured in the nuclei and BTG2-GFP in the cytoplasm. The PI-positive cells were identified by an overlay of the PI signal and the segmented nuclei. A cell was considered positive when there was at least 10% overlap. Results were stored in HDF5 format ([28]). To extract summarised data for further analysis and visualisation, in-house developed R-scripts were used in RStudio (version 1.0.153) (Boston, MA, USA) ([29–31]). The mean nuclear and cytoplasmic intensities of all measured single cells and the fraction of PI-positive cells for each image were extracted as output from the HDF5 files.
(§5) For 3D cultures, the NIS Elements analysis software (Nikon, Amsterdam, The Netherlands) was used to quantify the GFP intensity and PI-positive area within spheroids.

PHH = system: PHH; set-up: method as in PMID 32318794; settings: cited from earlier work
BTG2-GFP HepG2 reporter = assay type: cell-based
Procedure: as §1, §2, §3, §4, §5

p53-GFP HepG2 reporter = experiment: p53-GFP reporter activation, live cell confocal imaging; assay type: cell-based, human; settings: 2D, normal DMEM medium
Procedure: as §1
Two different compound exposure scenarios were performed: a single exposure in 2D and a 4-day repeated exposure in 3D. A schematic overview of the tested exposure scenarios for each HepG2 model has been depicted in Figure 1. For the single exposure scenario in 2D, medium was replaced by freshly diluted compound in medium 24 h post seeding. DDRs were monitored after 24, 48 and 72 h by live cell confocal imaging (Figure 1A and B). […] The ATP-lite luminescence kit (Perkin Elmer) was used according to supplier’s protocol to measure cell viability. […]
Prior to imaging, cells were stained with Hoechst 33342 at a concentration of 0.1 µg/ml to visualise the nuclei. […] The induction of GFP intensities and PI were monitored with a Nikon Eclipse Ti confocal laser microscope (Nikon, Amsterdam, The Netherlands), equipped with lasers at wavelengths 408, 488 and 561, an automated stage and perfect focus system at 37°C and 5% CO2. […]

N.N.[Cl][Pt][Cl] [Cisplatin]
DDR detection (PoD) ([1]; 2D culturing, AAGLY medium): could not be detected
concentration giving clear reporter activation ([1]; AAGLY medium or 3D culture): ≥ 10 µM
PoD of reporter activation ([1]; HepG2 2D, normal DMEM medium): 0.32 to 1.83 µM
concentration giving clear concentration-dependent reporter activation ([1]; all DNA damage reporters, 2D, normal DMEM medium): ≥ 0.46 µM
PoD (CometChip) (PHH): 6.3 µM

Nc1ccn([C@@H]2O[C@H](CO)[C@@H](O)C2(F)F)c(=O)n1 [Gemcitabine]
BTG2-GFP response across culture conditions (BTG2-GFP HepG2 reporter; human): only induced BTG2-GFP responses in the proliferating HepG2 cultured in 2D in normal DMEM medium
PoD of reporter activation [1]: did not induce a quantifiable genotoxic effect
genotoxic effects (reporter activation) [1]: almost absent
PoD of reporter activation ([1]; human): ≤ 0.028 µM

Cc1c(-c2ccc(-c3ccccc3F)cc2)nc2ccc(F)cc2c1C(=O)O [Brequinar]
BTG2-GFP response across culture conditions (BTG2-GFP HepG2 reporter; four culture conditions): only induced BTG2-GFP responses in the proliferating HepG2 cultured in 2D in normal DMEM medium
DDR (p21 and p53 activation) ([1]; AAGLY medium): induced a DDR (p21 and p53 activation) at the highest concentration
DDR (p21 and p53 activation) ([1]; normal DMEM medium): not seen
DDR ([1]; 24 h after exposure): no DDR was observed
maximal p53 induction compared to other reporters (p53-GFP HepG2 reporter): ~ 3 fold

Aflatoxin B1
concentration of peak BTG2-GFP induction (BTG2-GFP HepG2 reporter): 10 µM
concentration at which reporter induction was already observed [1]: 0.1 µM
induction of DNA damage reporters [1]: induced DNA damage reporters (BTG2, p21 and p53) in all culture conditions
reporter induction [1]: ≤ 4.5 fold
